According to patent US20240082255A1 (Board of Regents, The University of Texas System, priority 2017, published 2024):
“Also recorded” adds a separate entry of the source.

Assays:
[1] = system: MDA-MB-231 cells; assay: RNA seq gene expression profiling; assay type: cell-based; details: 96 hours
Procedure: RNA samples were further processed for gene expression profiling using Illumina HiSeq 2000 following manufacturer's standard protocol (Illumina, San Diego, CA). Differential expression analysis was performed by using DEseq, and significant genes with at least 1.5-fold change with p<0.05 were chosen for analysis. Using all significant and differentially expressed genes from the RNA-seq data, Ingenuity Pathway Analysis software (IPA) was used to interpret the biological pathways. Total protein extracted from cell lines were subjected to western blot analysis.

[2] = system: IL-12; details: Mukherjee et al., 2014; cited from earlier work
[3] = system: MDA-MB-231 cells; assay: transwell migration assay; assay type: cell-based; details: MDA-MB-231, 20 μM for 48 hrs
[4] = system: MDA-MB-231-GFP-luc cells implanted into the mammary fat pad; assay: orthotopic xenograft study, imipramine and olaparib; assay type: in vivo, athymic nude mice; details: weeks 4 and 5; imipramine 40 mg/kg or olaparib 50 mg/kg body weight
Procedure: To evaluate whether imipramine can sensitize the response to olaparib treatment, an orthotopic xenograft study was performed. […] Mice were treated for 4 weeks starting week 1 after tumor implantation. Tumor volumes were measured twice a week.

[5] = system: MDA-MB-231 cells implanted into the mammary fat pad; details: 16 escalated to 20 or 32 escalated to 40 mg/kg body weight, ip daily for thirty days
Procedure: MDA-MB-231 cells were implanted into the mammary fat pad of athymic nude mice. […] After the 30th day, the mice were euthanized, and the tumors were isolated and processed for molecular and immunohistologic studies. Tumor volume was calculated by using the formula 0.5236L1 (L2)^2, where L1 is long axis and L2 is the short axis of the tumor.

[6] = system: IL-10; details: Mukherjee et al., 2014; cited from earlier work
[7] = system: MDA-MB-231 cells; assay: transwell invasion assay; assay type: cell-based; details: MDA-MB-231, 20 μM for 48 hrs
[8] = system: MDA-MB-231 cells; assay: alamar Blue cell viability assay; assay type: cell-based; details: MDA-MB-231, imipramine 5-100 μM, 96 hours
Procedure: (§1) The data shown are mean±SEM. *, P<0.05; **, P<0.01; ***, P<0.001; ****, P<0.0001 versus control group, t-test.
(§2) Cell viability was assessed using alamar Blue cell viability assay.

[9] = system: MDA-MB-468 cells; assay: alamar Blue cell viability assay; assay type: cell-based; details: MDA-MB-468, imipramine 5-100 μM, 96 hours
Procedure: as §1, §2

Row | Structure (SMILES) | expression of cell cycle and DNA repair genes FOXM1, CyclinD1, PLK1, SKP2, XRCC3 and RAD51 [1] | effect on levels of IL-12 [2] | migration of breast cancer cells compared with vehicle control [3] | difference in tumor growth, control vs single agent [4] | tumor growth (mean tumor volume) compared to vehicle control [5] | tumor size compared to vehicle control [5] | tumor weight compared to vehicle control [5] | effect on IL-10 [6] | invasion of breast cancer cells compared with vehicle control [7] | viability of breast cancer cells compared to vehicle-treated cells [8] | viability of breast cancer cells compared to vehicle-treated cells [9]
1 | CN(C)CCCN1c2ccccc2CCc2ccccc21 [imipramine] | reduced expression | elevate | reduction | significant difference | significantly reduced | significantly reduced | reduced tumor weight in a dose dependent manner; also recorded: significantly reduced | inhibit | reduction | significantly reduced viability | significantly reduced viability
2 | O=C(c1cc(Cc2n[nH]c(=O)c3ccccc23)ccc1F)N1CCN(C(=O)C2CC2)CC1 [olaparib] |  |  |  | significant difference |  |  |  |  |  |  | 
